Data published in patent US20240343723A1, “CRYSTAL FORM OF LANIFIBRANOR, PREPARATION METHOD THEREFOR, AND USE THEREOF” (CRYSTAL PHARMACEUTICAL (SUZHOU) CO., LTD., priority 2021, published 2024).
Entries after “also recorded” stand apart in the source; their conditions may differ.

What was measured:
Format in all cases: physicochemical
[1] = Dynamic vapor sorption (DVS) hygroscopicity, with XRPD before and after DVS; settings: for crystalline state after DVS (XRPD): humidity cycle 0%-95%-0% RH; for weight gain from 0% to 70% RH: 25° C., cycle of 0%-95%-0% RH
Experimental: Dynamic Vapor Sorption (DVS) was measured via an SMS (Surface Measurement Systems Ltd.) intrinsic DVS instrument. The instrument control software is DVS-Intrinsic control software. Typical Parameters for DVS test are as follows: • Temperature: 25° C. • Gas and flow rate: N2, 200 mL/min • RH range: 0% RH to 95% RH Dynamic vapor sorption (DVS) analyzer was applied to evaluate the hygroscopicity of amorphous with a certain amount of sample obtained by Example 6. The weight gains at each relative humidity were recorded in a cycle of 0%-95%-0% RH. […] Dynamic vapor sorption (DVS) analyzer was applied to evaluate hygroscopicity of Form CSV with a certain amount of sample. The weight gains at each relative humidity were recorded in a cycle of 0%-95%-0% RH. Dynamic vapor sorption (DVS) analyzer was applied to evaluate hygroscopicity of Form CSIII with a certain amount of sample. The weight gains at each relative humidity were recorded in a cycle of 0%-95%-0% RH. The XRPD patterns of Form CSIII before and after DVS test are shown in FIG. 13 and the DVS curve of Form CSIII is shown in FIG. 13.

[2] = Physical and chemical stability on storage (XRPD, HPLC); settings: for chemical purity during storage: HPLC; for Form after storage: XRPD
Experimental: A certain amount of Form CSV of the present disclosure was stored under different conditions of 40° C./75% RH and 60° C./75% RH. Crystalline form and chemical purity were checked by XRPD and HPLC, respectively. Open packaged: Put the sample into a glass vial, cover the vial with aluminum foil, and punch 5-10 holes in the foil. Sealed packaged: Put the sample into a glass vial, and seal the vial and desiccant in an aluminum foil bag. A certain amount of Form CSIII of the present disclosure was stored under different conditions of 25° C./60% RH and 40° C./75% RH with sealed and open packaged. Crystalline form and chemical purity were checked by XRPD and HPLC, respectively. Open packaged: Put the sample into a glass vial, cover the vial with an aluminum foil, and punch 5-10 holes in the foil. Sealed packaged: Put the sample into a glass vial, and seal the vial and desiccant in an aluminum foil bag.

[3] = Flowability by compressibility index (bulk and tapped density)
Experimental: Compressibility index is usually utilized to evaluate the flowability of powder or granules during the drug product process. Compressibility index test method is as follows: a certain amount of powder was added into a measuring cylinder and bulk volume was recorded. Then the powder was tapped to make it in the tightest state and the tapped volume was recorded. The bulk density (ρ0) and tapped density (ρf) were calculated and compressibility index was calculated according to c=(ρf−ρ0)/ρf.

[4] = Adhesiveness: material sticking to the punch after compression; settings: about 30 mg, 8 mm round tooling, 10 kN held for 30s
Experimental: ENERPAC manual tablet press was used for testing. Approximately 30 mg of Form CSV was weighed and then added into the dies of @8 mm round tooling, compressed at 10 kN and held for 30s. The punch was weighed and the amount of material sticking to the punch was calculated. The compression was repeated twice and the maximum amount and average amount of material sticking to the punch during the compression were recorded.

[5] = Physical stability upon mechanical force (tableting, XRPD)
Excerpt: A certain amount of Form CSV was compressed into tablet under different pressures with suitable tableting die. Crystalline form before and after tableting were checked by XRPD.

[6] = 40° C./75% RH, open and sealed package

Row | Compound | crystalline state after DVS (XRPD) [1] | chemical purity during storage ([2]; 25° C./60% RH, at least 6 months) | time for which the form is stable ([2]; 25° C./60% RH, sealed and open packaged) | chemical purity during storage ([2]; 40° C./75% RH, at least 2 months) | time for which the form is stable [2, 6] | weight gain from 0% to 70% RH ([1]; DVS) | Form after storage ([2]; 40° C./75% RH, open packaged, 9 months) | Form after storage ([2]; 40° C./75% RH, sealed packaged, 9 months) | time for which the form is stable ([2]; 60° C./75% RH, open and sealed package) | Form after storage ([2]; 60° C./75% RH, open packaged, 1 month) | Form after storage ([2]; 60° C./75% RH, sealed packaged, 1 month) | Bulk density [3] | Tapped density [3] | Flowability ([3]; class by compressibility index, ICH Q4B Annex 13) | average adhesion amount [4] | Solid form after tableting ([5]; Pressure 5 kN) | Solid form after tableting ([5]; Pressure 10 kN) | Solid form after tableting ([5]; Pressure 20 kN) | weight gain of amorphous from 0 to 70% RH relative to that of Form CSV ([1]; DVS, 0 to 70% RH) | weight gain from 0% to 70% RH ([1]; DVS, listed as prior art amorphous)
1 | O=C(O)CCCc1cc2cc(Cl)ccc2n1S(=O)(=O)c1ccc2ncsc2c1 [Form CSIII, 5-Chloro-1-[(6-benzothiazolyl)sulfonyl]-1H-indole-2-butanoic acid] | remains unchanged | above 99.5% | at least 6 months | above 99.5% | at least 2 months |  |  |  |  |  |  |  |  |  |  |  |  |  |  | 
2 | O=C(O)CCCc1cc2cc(Cl)ccc2n1S(=O)(=O)c1ccc2ncsc2c1 [Form CSV, 5-Chloro-1-[(6-benzothiazolyl)sulfonyl]-1H-indole-2-butanoic acid] | remains unchanged; also recorded: doesn't change |  |  |  | at least 9 months | 0.35% | Form CSV | Form CSV | at least 1 month | Form CSV | Form CSV | 0.412 g/mL | 0.515 g/mL | Fair (16-20) | 0.45 mg | Form CSV | Form CSV | Form CSV |  | 
3 | O=C(O)CCCc1cc2cc(Cl)ccc2n1S(=O)(=O)c1ccc2ncsc2c1 [amorphous, 5-Chloro-1-[(6-benzothiazolyl)sulfonyl]-1H-indole-2-butanoic acid, reference compound] |  |  |  |  |  | 1.18% |  |  |  |  |  |  |  |  |  |  |  |  | about 3.4 times | 1.18%
